Experiment [1] concerns the target triiodothyronine (T3) nuclear receptor. Nature of the experiment: T3 nuclear receptor binding assay (rat liver nuclei, [125I]-L-T3 displacement). To be noted: 0.3 nM [125I]-L-T3, 22° C. Here is the method:
The in vitro binding to T3 nuclear receptors is determined as follows:
Rat liver nuclei and plasma membrane preparations are obtained from Sprague-Dawley (CD) rats (Charles River Labs.) by differential centrifugation as described by Emmelot at al (Methods in Enzymology 31:75, Part A, 1974) with minor modificatons. The nuclear fraction obtained from the 275 ×g pellet is further purified as generally described by Spindler et al (J. Biol. Chem. 250:4118, 1975).
The novel test compounds are assayed for binding to the nuclei by the method of Spindler et al (J. Biol. Chem. 250:4118, 1975). The nuclei are incubated at 22° C. with 0.3 nM of [^125I]-L-triiodothyronine (L-T3). Parallel incubations are conducted with tubes containing, in addition to the nuclei and radioactive L-T3, either various concentrations of the test compounds or 3 μM of nonradioactive L-T3. The latter is used as a measure of nonspecific binding. The radio-activity bound to the nuclei is determined following centrifugation of the reaction mixture at 800×g for 7 minutes and washing of the pellet obtained. The amount of [^125I]-L-T3 specifically bound is determined by subtracting the amount nonspecifically bound (radioactivity contained in the nuclear pellet following incubation with excess (3 μM) non-radioactive L-T3. The concentration of test compound which inhibits the specific binding of [^125I]-L-T3 by 50 percent (IC50) is determined graphically from the reciprocal plot of the specifically bound [^125I]-L-T3 versus the various concentrations of the test compound.

Experiment [2] concerns serum cholesterol. The experiment in a line: Cholesterol lowering activity in the rat on a high cholesterol diet. It counts as in vivo. To be noted: daily dose of about 20 μg/kg p.o. Here is the method: Cholesterol lowering activity is determined in the rat as follows:
Male Sprague-Dawley rats (230-250 g) (Taconic Farms) are maintained ad libitum on water and a high cholesterol diet (1.5% cholesterol and 0.5% cholic acid) for two weeks prior to and during the 7-day treatment period. Groups of animals are treated orally by gavage with the vehicle alone or with test compound for 7 consecutive days. After the last dose, animals are fasted for 18 hours and blood is collected. Blood samples are centrifuged at 2500 rpm for 10 minutes to prepare plasma for total cholesterol determination as well as LDL and HDL cholesterol concentrations. HDL values are determined after […] (Warnick and Albers, 1978). All samples are analyzed enzymatically for cholesterol with a diagnostic reagent kit (Sigma Chemical Co., St. Louis, Mo.). The analysis is performed on a Bio-Mek automated work station. LDL/VLDL fractions are precipitated in the following manner: 0.35 mL of plasma is aliquoted into Eppendorf tubes to which 12 μL of 2M manganese chloride, 11.2 μL of sodium heparin (Porcine Intestinal, 5000 units/mL), and 8.3 μL of normal saline are added. The samples are vortexed and are placed on ice for 15 minutes, then centrifuged at 4° C. for 10 minutes at 1300 rpm and the supernatant is enzymatically analyzed for cholesterol. […]

The test system of a further experiment is Lp(a). Nature of the experiment: Lp(a) lowering activity in the normolipemic cynomolgus monkey. Type of experiment: in vivo, cynomolgus monkey (Macaca fascicularis). To be noted: normolipemic cynomolgus monkeys, 4 week treatment, daily oral dose of 75 μg/kg. Here is the method: Cholesterol and Lp(a) lowering activity can be determined in the normolipemic cynomolgus monkey as follows:
Adult male and female cynomolgus monkeys (Macaca fascicularis) weighing 3-7 kg are used. Animals are individually housed and fed a standard monkey chow diet (Purina 5047) supplemented with fresh fruits and vegetables. Each animal serves as its own control and each dosing regime is followed by a wash out period. Test compounds were dissolved in ethanol, imbibed in fruit pulp and administered orally. Animals are dosed once a day with test compounds for a treatment period varying from 8 to 28 days. Blood samples are obtained after an overnight fast at baseline and at the end of the study. […] Plasma samples are divided into aliquots and stored at −70° C. until analyzed. Plasma concentrations of total cholesterol (TC) and triglycerides (TG) are determined by enzymatic methods using commercial kits (Sigma Diagnostics). High-density lipoprotein cholesterol (HDL-C) concentration is measured after precipitation of apoB-containing lipoproteins. Since the fasting plasma of cynomolgus monkeys on a chow diet contains negligible amounts of cholesterol in very low-density lipoprotein, the low-density lipoprotein cholesterol (LDL-C) concentration is calculated by subtracting HDL-C from TC. […] Quantification of Lp(a) is not affected by apo(a) size. […]

Experiment [3] deals with serum cholesterol. Nature of the experiment: Cholesterol lowering activity in normocholesterolemic dogs. Type of experiment: in vivo. To be noted: dog, daily dose of about 10 μg/kg p.o. The text has this:
Cholesterol lowering activity can also be evaluated in normocholesterolemic dogs fed regular chow following the procedure described above, by administration of test compound orally for 5 days.

Broadly, the IC50 is the concentration that gives 50% inhibition. For `Cc1cc(NC(=O)C(=O)O)cc(C)c1Oc1ccc(O)c(S(=O)(=O)c2ccc(F)cc2)c1` [Example 26, N-{4-[3-(4-Fluorobenzenesulfonyl)4-hydroxyphenoxy]-3,5-dimethylphenyl}oxamic acid], the 50% inhibitory concentration (IC50) in experiment [1] is approximately 0.17 nM. Further, the serum cholesterol lowering entry in the experiment with serum cholesterol [2] and in the experiment with serum cholesterol [3] was “significantly lowers serum cholesterol” in each case. Also, the “Lp(a) levels lowered” value in the experiment with Lp(a) is “about 40%”. Regarding `Cc1cc(NC(=O)C(=O)O)cc(C)c1Oc1ccc(O)c(S(=O)(=O)c2ccc(Cl)cc2)c1` [Example 28], in experiment [1], the IC50 is approximately 0.13 nM. Turning to `Cc1cc(NC(=O)CC(=O)O)cc(C)c1Oc1ccc(O)c(S(=O)(=O)c2ccc(F)cc2)c1` [Example 35, N-{4-[3-(4-Fluorobenzenesulfonyl)-4-hydroxyphenoxy]-3,5-dimethylphenyl}malonamic acid], in experiment [1], the IC50 is approximately 1 nM. In turn, `O=C(O)C(=O)Nc1cc(Br)c(Oc2ccc(O)c(S(=O)(=O)c3ccc(F)cc3)c2)c(Br)c1` [Example 39, N-{3,5-Dibromo-4-[3-(4-fluorobenzenesulfonyl)-4-hydroxyphenoxy]phenyl}oxamic acid] yielded an IC50 in experiment [1] of approximately 0.04 nM.
